Source: ChEMBL document CHEMBL3217683, “Matched triplicate design sets in the optimisation of glucokinase activators maximising medicinal chemistry information content” (Medchemcomm, 2013)

Tested on: not listed separately
Test: Lipophilicity, log D of the compound
Assay type: physicochemical
Details: octanol/water
Molecule `CC(C)OC[C@H](Oc1ncnc2c1cnn2-c1ccccc1Cl)C(=O)Nc1ccccn1` has a logD of 3.5.
For `COCC[C@H](Oc1ncnc2c1cnn2-c1ncccc1Cl)C(=O)Nc1ccc(C)cn1`, the logD was 2.3.
Work on `CC(C)OC[C@H](Oc1ncnc2c1cnn2-c1ccccc1Cl)C(=O)Nc1ccc(F)cn1` yielded a logD of 3.9.
Molecule `CC(C)OC[C@H](Oc1ncnc2c1cnn2-c1ncccc1Cl)C(=O)Nc1ccccn1` has a logD of 2.5.
Molecule `CC(C)OC[C@H](Oc1ncnc2c1cnn2-c1ccccc1Cl)C(=O)Nc1ccc(C#N)cn1` has a logD of 3.5.
In the case of `CCOC[C@H](Oc1ncnc2c1cnn2-c1ncccc1Cl)C(=O)Nc1ccccn1`, the logD is reported as 2.1.
For `COC[C@H](Oc1ncnc2c1cnn2-c1ncccc1Cl)C(=O)Nc1cnc(C)cn1`, the logD was 1.4.
Work on `CCOC[C@H](Oc1ncnc2c1cnn2-c1ncccc1Cl)C(=O)Nc1ccc(Cl)cn1` yielded a logD of 3.
`CCOC[C@H](Oc1ncnc2c1cnn2-c1ccccc1Cl)C(=O)Nc1cnc(C)cn1` gave a logD of 2.8.
`CCOC[C@H](Oc1ncnc2c1cnn2-c1ncccc1Cl)C(=O)Nc1cnc(C)cn1` showed a logD of 1.8.
`Cc1cnc(NC(=O)[C@H](COC(C)C)Oc2ncnc3c2cnn3-c2ccccc2Cl)cn1` gave a logD of 2.1.
Molecule `CCOC[C@H](Oc1ncnc2c1cnn2-c1ncccc1Cl)C(=O)Nc1ccc(C#N)cn1` has a logD of 2.
Molecule `Cc1ccc(NC(=O)[C@H](COC(C)C)Oc2ncnc3c2cnn3-c2ncccc2Cl)nc1` has a logD of 2.9.
With `Cc1cnc(NC(=O)[C@H](COC2CCC2)Oc2ncnc3c2cnn3-c2ccccc2Cl)cn1` the logD was 3.6.
In the case of `Cc1cnc(NC(=O)[C@H](COC2CCC2)Oc2ncnc3c2cnn3-c2ncccc2Cl)cn1`, the logD is reported as 2.6.
Work on `COC[C@H](Oc1ncnc2c1cnn2-c1ncccc1Cl)C(=O)Nc1ccc(C)cn1` yielded a logD of 2.3.
With `CCOC[C@H](Oc1ncnc2c1cnn2-c1ncccc1Cl)C(=O)Nc1ccc(F)cn1` the logD was 2.4.
Work on `CCOC[C@H](Oc1ncnc2c1cnn2-c1ncccc1Cl)C(=O)Nc1ccc(C)cn1` yielded a logD of 2.6.
With `CC(C)OC[C@H](Oc1ncnc2c1cnn2-c1ncccc1Cl)C(=O)Nc1ccc(F)cn1` the logD was 2.7.
With `COC[C@H](Oc1ncnc2c1cnn2-c1ccccc1Cl)C(=O)Nc1ccc(C)cn1` the logD was 3.4.
For `CC(C)OC[C@H](Oc1ncnc2c1cnn2-c1ncccc1Cl)C(=O)Nc1ccc(C#N)cn1`, the logD was 2.5.
With `COCC[C@H](Oc1ncnc2c1cnn2-c1ccccc1Cl)C(=O)Nc1ccc(C)cn1` the logD was 3.6.
With `Cc1ccc(NC(=O)[C@H](COC2CCC2)Oc2ncnc3c2cnn3-c2ncccc2Cl)nc1` the logD was 3.2.
`CC(C)OC[C@H](Oc1ncnc2c1cnn2-c1ncccc1Cl)C(=O)Nc1ccc(Cl)cn1` showed a logD of 3.5.
Work on `Cc1ccc(NC(=O)[C@H](COC(C)C)Oc2ncnc3c2cnn3-c2ccccc2Cl)nc1` yielded a logD of 3.9.

Species on record: Rattus norvegicus
Test: Unbound clearance in rat
Assay type: ADME, organism-based
Details: in vivo
With `COCC[C@H](Oc1ncnc2c1cnn2-c1ncccc1Cl)C(=O)Nc1ccc(C)cn1` the CL free was 280 mL/min/kg.
With `CCOC[C@H](Oc1ncnc2c1cnn2-c1ccccc1Cl)C(=O)Nc1cnc(C)cn1` the CL free was 150 mL/min/kg.
Molecule `CCOC[C@H](Oc1ncnc2c1cnn2-c1ncccc1Cl)C(=O)Nc1cnc(C)cn1` has a CL free of 320 mL/min/kg.
`Cc1cnc(NC(=O)[C@H](COC(C)C)Oc2ncnc3c2cnn3-c2ccccc2Cl)cn1` showed a CL free of 130 mL/min/kg.
In the case of `Cc1ccc(NC(=O)[C@H](COC(C)C)Oc2ncnc3c2cnn3-c2ncccc2Cl)nc1`, the CL free is reported as 390 mL/min/kg.
`Cc1cnc(NC(=O)[C@H](COC2CCC2)Oc2ncnc3c2cnn3-c2ccccc2Cl)cn1` showed a CL free of 650 mL/min/kg.
For `Cc1cnc(NC(=O)[C@H](COC2CCC2)Oc2ncnc3c2cnn3-c2ncccc2Cl)cn1`, the CL free was 260 mL/min/kg.
For `CCOC[C@H](Oc1ncnc2c1cnn2-c1ncccc1Cl)C(=O)Nc1ccc(C)cn1`, the CL free was 340 mL/min/kg.
In the case of `COCC[C@H](Oc1ncnc2c1cnn2-c1ccccc1Cl)C(=O)Nc1ccc(C)cn1`, the CL free is reported as 500 mL/min/kg.
`Cc1ccc(NC(=O)[C@H](COC2CCC2)Oc2ncnc3c2cnn3-c2ncccc2Cl)nc1` gave a CL free of 1500 mL/min/kg.
For `Cc1ccc(NC(=O)[C@H](COC(C)C)Oc2ncnc3c2cnn3-c2ccccc2Cl)nc1`, the CL free was 1400 mL/min/kg.

Tested on: not listed separately
Test: Clearance in rat
Assay type: ADME, organism-based
Details: in vivo
Work on `COCC[C@H](Oc1ncnc2c1cnn2-c1ncccc1Cl)C(=O)Nc1ccc(C)cn1` yielded a clearance of 54 mL/min/kg.
Work on `COC[C@H](Oc1ncnc2c1cnn2-c1ncccc1Cl)C(=O)Nc1cnc(C)cn1` yielded a clearance of 4 mL/min/kg.
For `CCOC[C@H](Oc1ncnc2c1cnn2-c1ccccc1Cl)C(=O)Nc1cnc(C)cn1`, the clearance was 44 mL/min/kg.
`CCOC[C@H](Oc1ncnc2c1cnn2-c1ncccc1Cl)C(=O)Nc1cnc(C)cn1` gave a clearance of 50 mL/min/kg.
With `Cc1cnc(NC(=O)[C@H](COC(C)C)Oc2ncnc3c2cnn3-c2ccccc2Cl)cn1` the clearance was 61 mL/min/kg.
`Cc1ccc(NC(=O)[C@H](COC(C)C)Oc2ncnc3c2cnn3-c2ncccc2Cl)nc1` gave a clearance of 62 mL/min/kg.
`Cc1cnc(NC(=O)[C@H](COC2CCC2)Oc2ncnc3c2cnn3-c2ccccc2Cl)cn1` gave a clearance of 42 mL/min/kg.
In the case of `Cc1cnc(NC(=O)[C@H](COC2CCC2)Oc2ncnc3c2cnn3-c2ncccc2Cl)cn1`, the clearance is reported as 22 mL/min/kg.
With `COC[C@H](Oc1ncnc2c1cnn2-c1ncccc1Cl)C(=O)Nc1ccc(C)cn1` the clearance was 9.3 mL/min/kg.
For `CCOC[C@H](Oc1ncnc2c1cnn2-c1ncccc1Cl)C(=O)Nc1ccc(C)cn1`, the clearance was 52 mL/min/kg.
Work on `COC[C@H](Oc1ncnc2c1cnn2-c1ccccc1Cl)C(=O)Nc1ccc(C)cn1` yielded a clearance of 3.8 mL/min/kg.
`COCC[C@H](Oc1ncnc2c1cnn2-c1ccccc1Cl)C(=O)Nc1ccc(C)cn1` gave a clearance of 37 mL/min/kg.
`Cc1ccc(NC(=O)[C@H](COC2CCC2)Oc2ncnc3c2cnn3-c2ncccc2Cl)nc1` gave a clearance of 136 mL/min/kg.
`Cc1ccc(NC(=O)[C@H](COC(C)C)Oc2ncnc3c2cnn3-c2ccccc2Cl)nc1` showed a clearance of 71 mL/min/kg.

Target: Voltage-gated inwardly rectifying potassium channel KCNH2 (Homo sapiens, UniProt Q12809)
Sequence (Q12809 whole entry): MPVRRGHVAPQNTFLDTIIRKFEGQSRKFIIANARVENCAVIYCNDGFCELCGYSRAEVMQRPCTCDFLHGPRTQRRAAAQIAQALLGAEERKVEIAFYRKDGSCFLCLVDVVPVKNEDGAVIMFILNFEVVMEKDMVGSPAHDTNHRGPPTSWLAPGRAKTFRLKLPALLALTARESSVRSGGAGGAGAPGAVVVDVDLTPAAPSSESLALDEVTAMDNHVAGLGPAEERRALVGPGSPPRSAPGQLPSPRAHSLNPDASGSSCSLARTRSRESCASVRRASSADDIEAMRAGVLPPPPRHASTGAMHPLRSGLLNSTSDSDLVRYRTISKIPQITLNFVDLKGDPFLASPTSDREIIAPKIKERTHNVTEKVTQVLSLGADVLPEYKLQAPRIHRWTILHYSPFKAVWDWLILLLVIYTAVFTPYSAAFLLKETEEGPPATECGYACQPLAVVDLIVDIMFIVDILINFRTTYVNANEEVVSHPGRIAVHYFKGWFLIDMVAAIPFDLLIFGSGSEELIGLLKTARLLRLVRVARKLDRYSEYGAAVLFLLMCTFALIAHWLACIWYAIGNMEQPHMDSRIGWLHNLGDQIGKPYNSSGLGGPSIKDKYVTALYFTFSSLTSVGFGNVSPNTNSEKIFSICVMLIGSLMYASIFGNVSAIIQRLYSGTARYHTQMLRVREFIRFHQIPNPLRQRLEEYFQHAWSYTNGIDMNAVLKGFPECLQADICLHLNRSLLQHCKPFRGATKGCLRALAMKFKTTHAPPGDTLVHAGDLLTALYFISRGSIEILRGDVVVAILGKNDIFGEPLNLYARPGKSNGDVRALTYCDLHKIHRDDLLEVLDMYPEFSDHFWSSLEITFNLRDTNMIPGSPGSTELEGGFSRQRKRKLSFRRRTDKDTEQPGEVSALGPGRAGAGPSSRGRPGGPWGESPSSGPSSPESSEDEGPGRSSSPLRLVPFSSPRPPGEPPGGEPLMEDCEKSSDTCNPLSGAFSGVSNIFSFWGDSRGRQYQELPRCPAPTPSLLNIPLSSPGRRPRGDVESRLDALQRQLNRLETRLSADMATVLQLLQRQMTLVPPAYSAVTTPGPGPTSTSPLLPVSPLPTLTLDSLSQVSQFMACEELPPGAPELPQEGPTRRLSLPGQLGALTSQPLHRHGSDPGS
Test: Inhibition of human ERG
Details: not given
`CC(C)OC[C@H](Oc1ncnc2c1cnn2-c1ccccc1Cl)C(=O)Nc1ccccn1` showed an IC50 of 63100 nM.
With `CC(C)OC[C@H](Oc1ncnc2c1cnn2-c1ncccc1Cl)C(=O)Nc1ccccn1` the IC50 was over 100000 nM.
For `CCOC[C@H](Oc1ncnc2c1cnn2-c1ncccc1Cl)C(=O)Nc1ccccn1`, the IC50 was over 100000 nM.
Molecule `COC[C@H](Oc1ncnc2c1cnn2-c1ncccc1Cl)C(=O)Nc1cnc(C)cn1` has an IC50 of over 79400 nM.
Work on `CCOC[C@H](Oc1ncnc2c1cnn2-c1ncccc1Cl)C(=O)Nc1ccc(Cl)cn1` yielded an IC50 of 10000 nM.
`CCOC[C@H](Oc1ncnc2c1cnn2-c1ncccc1Cl)C(=O)Nc1cnc(C)cn1` showed an IC50 of 15800 nM.
For `Cc1cnc(NC(=O)[C@H](COC(C)C)Oc2ncnc3c2cnn3-c2ccccc2Cl)cn1`, the IC50 was over 100000 nM.
`CCOC[C@H](Oc1ncnc2c1cnn2-c1ncccc1Cl)C(=O)Nc1ccc(C#N)cn1` gave an IC50 of 20000 nM.
`Cc1ccc(NC(=O)[C@H](COC(C)C)Oc2ncnc3c2cnn3-c2ncccc2Cl)nc1` showed an IC50 of over 100000 nM.
`Cc1cnc(NC(=O)[C@H](COC2CCC2)Oc2ncnc3c2cnn3-c2ccccc2Cl)cn1` showed an IC50 of 12600 nM.
`COC[C@H](Oc1ncnc2c1cnn2-c1ncccc1Cl)C(=O)Nc1ccc(C)cn1` showed an IC50 of over 100000 nM.
`CC(C)OC[C@H](Oc1ncnc2c1cnn2-c1ncccc1Cl)C(=O)Nc1ccc(F)cn1` gave an IC50 of 79400 nM.
In the case of `COC[C@H](Oc1ncnc2c1cnn2-c1ccccc1Cl)C(=O)Nc1ccc(C)cn1`, the IC50 is reported as 50100 nM.
With `CC(C)OC[C@H](Oc1ncnc2c1cnn2-c1ncccc1Cl)C(=O)Nc1ccc(C#N)cn1` the IC50 was 50100 nM.
Work on `COCC[C@H](Oc1ncnc2c1cnn2-c1ccccc1Cl)C(=O)Nc1ccc(C)cn1` yielded an IC50 of 20000 nM.
`Cc1ccc(NC(=O)[C@H](COC2CCC2)Oc2ncnc3c2cnn3-c2ncccc2Cl)nc1` gave an IC50 of 39800 nM.
For `CC(C)OC[C@H](Oc1ncnc2c1cnn2-c1ncccc1Cl)C(=O)Nc1ccc(Cl)cn1`, the IC50 was 63100 nM.
Molecule `Cc1ccc(NC(=O)[C@H](COC(C)C)Oc2ncnc3c2cnn3-c2ccccc2Cl)nc1` has an IC50 of 31600 nM.

Target: T1, Hexokinase-4 (Homo sapiens, UniProt P35557)
T1 sequence (P35557 whole entry): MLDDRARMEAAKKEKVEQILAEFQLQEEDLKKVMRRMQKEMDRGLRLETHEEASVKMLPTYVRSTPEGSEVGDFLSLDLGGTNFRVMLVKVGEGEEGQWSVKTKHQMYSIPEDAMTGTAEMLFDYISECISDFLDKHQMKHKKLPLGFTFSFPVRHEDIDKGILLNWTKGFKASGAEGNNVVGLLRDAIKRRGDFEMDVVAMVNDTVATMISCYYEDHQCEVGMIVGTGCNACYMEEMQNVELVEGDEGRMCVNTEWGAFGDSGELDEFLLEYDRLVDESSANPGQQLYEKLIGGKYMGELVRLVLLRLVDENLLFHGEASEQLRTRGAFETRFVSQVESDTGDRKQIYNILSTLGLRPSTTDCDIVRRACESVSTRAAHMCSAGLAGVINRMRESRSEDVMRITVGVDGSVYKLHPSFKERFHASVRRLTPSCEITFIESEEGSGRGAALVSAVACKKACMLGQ
Test: Activity at glucokinase (unknown origin)
Details: not given
With `CC(C)OC[C@H](Oc1ncnc2c1cnn2-c1ccccc1Cl)C(=O)Nc1ccccn1` the EC50 was 126 nM.
`COCC[C@H](Oc1ncnc2c1cnn2-c1ncccc1Cl)C(=O)Nc1ccc(C)cn1` gave an EC50 of 158 nM.
In the case of `CC(C)OC[C@H](Oc1ncnc2c1cnn2-c1ccccc1Cl)C(=O)Nc1ccc(F)cn1`, the EC50 is reported as 200 nM.
`CC(C)OC[C@H](Oc1ncnc2c1cnn2-c1ncccc1Cl)C(=O)Nc1ccccn1` gave an EC50 of 501 nM.
`CC(C)OC[C@H](Oc1ncnc2c1cnn2-c1ccccc1Cl)C(=O)Nc1ccc(C#N)cn1` gave an EC50 of 316 nM.
For `CCOC[C@H](Oc1ncnc2c1cnn2-c1ncccc1Cl)C(=O)Nc1ccccn1`, the EC50 was 501 nM.
In the case of `COC[C@H](Oc1ncnc2c1cnn2-c1ncccc1Cl)C(=O)Nc1cnc(C)cn1`, the EC50 is reported as 5010 nM.
`CCOC[C@H](Oc1ncnc2c1cnn2-c1ncccc1Cl)C(=O)Nc1ccc(Cl)cn1` gave an EC50 of 316 nM.
`CCOC[C@H](Oc1ncnc2c1cnn2-c1ncccc1Cl)C(=O)Nc1cnc(C)cn1` gave an EC50 of 1260 nM.
Molecule `Cc1cnc(NC(=O)[C@H](COC(C)C)Oc2ncnc3c2cnn3-c2ccccc2Cl)cn1` has an EC50 of 316 nM.
In the case of `CCOC[C@H](Oc1ncnc2c1cnn2-c1ncccc1Cl)C(=O)Nc1ccc(C#N)cn1`, the EC50 is reported as 631 nM.
With `Cc1cnc(NC(=O)[C@H](COC2CCC2)Oc2ncnc3c2cnn3-c2ccccc2Cl)cn1` the EC50 was 79.4 nM.
In the case of `CC(C)OC[C@H](Oc1ncnc2c1cnn2-c1ccccc1Cl)C(=O)Nc1ccc(Cl)cn1`, the EC50 is reported as 126 nM.
`Cc1cnc(NC(=O)[C@H](COC2CCC2)Oc2ncnc3c2cnn3-c2ncccc2Cl)cn1` gave an EC50 of 158 nM.
`COC[C@H](Oc1ncnc2c1cnn2-c1ncccc1Cl)C(=O)Nc1ccc(C)cn1` gave an EC50 of 1580 nM.
`CCOC[C@H](Oc1ncnc2c1cnn2-c1ncccc1Cl)C(=O)Nc1ccc(C)cn1` showed an EC50 of 251 nM.
In the case of `COC[C@H](Oc1ncnc2c1cnn2-c1ccccc1Cl)C(=O)Nc1ccc(C)cn1`, the EC50 is reported as 316 nM.
In the case of `CC(C)OC[C@H](Oc1ncnc2c1cnn2-c1ncccc1Cl)C(=O)Nc1ccc(C#N)cn1`, the EC50 is reported as 631 nM.
With `Cc1ccc(NC(=O)[C@H](COC2CCC2)Oc2ncnc3c2cnn3-c2ncccc2Cl)nc1` the EC50 was 158 nM.
For `CC(C)OC[C@H](Oc1ncnc2c1cnn2-c1ncccc1Cl)C(=O)Nc1ccc(Cl)cn1`, the EC50 was 398 nM.
For `Cc1ccc(NC(=O)[C@H](COC(C)C)Oc2ncnc3c2cnn3-c2ccccc2Cl)nc1`, the EC50 was 126 nM.
